This is an account of results in US20180099937A1, “NOVEL ARYL-CYANOGUANIDINE COMPOUNDS” (Bayer Pharma Aktiengesellschaft, priority 2015, published 2018).

For experiment [1], the target named is T1, SMYD2 (Homo sapiens, UniProt Q9NRG4). The experiment is described as follows: Scintillation Proximity Assay (SPA) for detection of SMYD2 enzymatic inhibition. The class given is biochemical. Set-up: The SMYD2 full length enzyme was produced in-house by expression (with an N-terminal 6× His tag) in E. coli; 6xHis (N); made in house; host or cells: E. coli. Conditions: SMYD2 full length enzyme, p53 Peptide substrate 1.0 μM, 3H-SAM 60 nM; read-out: IC50 [mol/l] (SPA Assay). In a few lines: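 Full-length N-His SMYD2 from E. coli (typically 3 nM) was preincubated with compounds (0.1 nM–20 μM) for 15 min, then reacted 30 min at 22° C with 60 nM 3H-SAM and 1.0 μM biotinylated p53 peptide in Tris pH 9.0. Streptavidin SPA beads read methylation, and IC50 came from a 4-parameter fit.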
T1 sequence (Q9NRG4 whole entry): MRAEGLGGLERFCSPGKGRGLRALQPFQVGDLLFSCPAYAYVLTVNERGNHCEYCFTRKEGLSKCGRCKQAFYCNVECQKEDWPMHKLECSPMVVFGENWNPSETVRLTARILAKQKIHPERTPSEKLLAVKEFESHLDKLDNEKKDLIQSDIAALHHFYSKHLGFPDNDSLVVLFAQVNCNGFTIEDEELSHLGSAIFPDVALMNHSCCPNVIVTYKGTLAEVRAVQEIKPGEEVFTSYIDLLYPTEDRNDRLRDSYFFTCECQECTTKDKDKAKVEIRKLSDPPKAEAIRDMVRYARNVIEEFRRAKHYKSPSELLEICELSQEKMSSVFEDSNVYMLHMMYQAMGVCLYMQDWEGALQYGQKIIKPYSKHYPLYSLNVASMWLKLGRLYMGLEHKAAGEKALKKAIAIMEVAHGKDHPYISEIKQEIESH
(In general: Scintillation proximity formats need no separation of bound from free tracer.)

The target of experiment [2] is T1, SMYD2. The experiment is described as follows: In Cell Western (ICW) cell-based assay for detection of SMYD2 methylation activity. The settings on record: SMYD2 overexpressing KYSE-150 cells, 72 h treatment, p53K370me1 signal normalized to DRAQ5; read-out: IC50 [mol/l] (ICW assay). Set-up: expressed in transfected cells; host or cells: KYSE-150 (human esophageal carcinoma, DSMZ ACC 375). The source says:
1.2 Cell-Based Assay for Detection of SMYD2 methylation Activity
For the detection of SMYD2 cellular methylation activity an In Cell Western (ICW) assay was established. This assay allows rapid processing of multiple samples for SMYD2 methylation derived immunofluorescence signals, with normalization to cell number via the use of the nucleic acid dye DRAQS. KYSE-150 cells (human esophageal carcinoma cell line; DSMZ-German Collection of Microorganisms and Cell Cultures; No: ACC 375) have been stably transfected with a construct expressing wild-type SMYD2 (NCBI Reference Sequence: NP_064582.2). To detect SMYD2-mediated methylation signals in cells, a customized antibody directed against mono-methylated lysine 370 on protein p53 (p53K370me1) was used. The polyclonal antibody was generated (Eurogentec) against a p53 peptide containing the mono-methylated K370 epitope as described elsewhere (Huang et al., Nature, 2006, 444(7119):629-32).
For conducting the ICW assay 5000 SMYD2 overexpressing KYSE-150 cells/well were seeded in 96-well plates (SIGMA) and cultivated for 24 h. As a control for maximal inhibition of ectopic methylation activity, non-transfected KYSE-150 cells were used. Cells were grown in 49% RPMI 1640 with 49% Ham's F12 media supplemented with 2% heat inactivated fetal calf serum (FCS). For determination of SMYD2 inhibitory activity, cells were treated for 72 h in the presence of compounds or with DMSO. Cells were treated with compounds to be tested at a final concentration range varying from 3.9×10^−8 to 5×10^−6 M. Media was removed and 3.7% (w/v) formaldehyde in PBS was added for 20 min. After two washes with phosphate buffered saline (PBS), 0.25% (v/v) Triton X100 in PBS was added for 15 minutes of permeabilization. After one washing step with PBS, cells were blocked for 1 h with 5% (w/v) non-fat dry milk in PBS. Fixed cells were exposed to primary […] antibody in 5% non-fat dry milk in PBS for 24 h. One row of cells on each plate was not exposed to p53K370me1 antibody and was reserved for background control measurements. The wells were washed three times with PBS, then secondary IR800 conjugated antibody (LI-COR) and DNA-intercalating dye, 5 μM DRAQ5 (LI-COR) were added for 3 h. After 5 washes with PBS, the fluorescence in each well was measured on an Odyssey (LI-COR) scanner at 800 nm (p53K370me1 signal; 764 nm excitation) and 700 nm (DRAQS signal; 683 nm excitation). Fluorescence intensity was quantified and normalized to background and DRAQ5 signals. IC50 values were calculated by fitting the normalized inhibition data to a 4-parameter logistic equation (Minimum, Maximum, IC50, Hill; Y=Max+(Min−Max)/(1+(X/IC50)Hill)) for each tested compound. For IC50 determination C0 (=no inhibition) was defined as the signal measured for DMSO treated controls. Ci (maximal inhibition) was defined as the signal measured for non SMYD2 overexpressing KYSE150 cells.

The structures appear in SMILES notation.

For `CCN(C(=O)[C@H]1CCCN1)C1CN(/C(=N\C#N)Nc2cccc(OC(F)F)c2)N=C1c1ccc(Cl)c(Cl)c1` (mixture of isomers) [Example 1, N-[1-{N′-Cyano-N-[3-(difluoromethoxy)phenyl]carbamimidoyl}-3-(3,4-dichlorophenyl)-4,5-dihydro-1H-pyrazol-4-yl]-N-ethyl-D-prolinamide], the IC50 at SMYD2 [1] came to 24.7 nM; on SMYD2 [2], 161 nM.

Take `CCN(C(=O)[C@H]1CCN1)C1CN(/C(=N\C#N)Nc2cccc(OC(F)F)c2)N=C1c1ccc(Cl)c(Cl)c1` (mixture of isomers) [Example 2, (2R)-N-[1-{N′-cyano-N-[3-(difluoromethoxy)phenyl]carbamimidoyl}-3-(3,4-dichlorophenyl)-4,5-dihydro-1H-pyrazol-4-yl]-N-ethylazetidine-2-carboxamide]: the IC50 at SMYD2 [1] stood at 14.5 nM; on SMYD2 [2] it was 44.5 nM.

Take `C[C@]1(C(=O)NC2CN(/C(=N\C#N)Nc3cccc(OC(F)F)c3)N=C2c2ccc(Cl)c(Cl)c2)CCCN1` (mixture of isomers) [Example 6, N-[1-{N′-Cyano-N-[3-(difluoromethoxy)phenyl]carbamimidoyl}-3-(3,4-dichlorophenyl)-4,5-dihydro-1H-pyrazol-1-yl]-2-methyl-D-prolinamide]: the results for the IC50 at SMYD2 [1] and at SMYD2 [2] were 11.3 nM and 104 nM, respectively.

`CN(C(=O)[C@H]1C[C@@H](O)CN1)C1CN(/C(=N\C#N)Nc2cccc(OC(F)F)c2)N=C1c1ccc(Cl)c(Cl)c1` (mixture of isomers) [Example 12, (4R)-N-[1-{N′-Cyano-N-[3-(difluoromethoxy)phenyl]carbamimidayl}-3-(3,4-dichlorophenyl)-4,5-dihydro-1H-pyrazol-1-yl]-4-hydroxy-N-methyl-D-prolinamide]: the figures for the IC50 on SMYD2 [1] and on SMYD2 [2] were 16.8 nM and 313 nM, respectively.

With `CCN(C(=O)[C@H]1CCCN1)C1CN(/C(=N\C#N)Nc2cc(OC)cc(C(F)(F)F)c2)N=C1c1ccc(Cl)c(Cl)c1` (mixture of isomers) [Example 28, N-[1-{N′-Cyano-N-[3-methoxy-5-(trifluoromethyl)phenyl]carbamimidoyl}-3-(3,4-dichlorophenyl)-4,5-dihydro-1H-pyrazol-4-yl]-N-ethyl-D-prolinamide], the IC50 was 39.5 nM at SMYD2 [1] and 77 nM at SMYD2 [2].

`CCN(C(=O)[C@H]1CCCN1)C1CN(/C(=N\C#N)Nc2cc(OC)ccc2Cl)N=C1c1ccc(Cl)c(Cl)c1` (mixture of isomers) [Example 32, N-{1-[N-(2-Chloro-5-methoxyphenyl)-N′-cyanocarbamimidoyl]-3-(3,4-dichlorophenyl)-4,5-dihydro-1H-pyrazol-4-yl}-N-ethyl-D-prolinamide]: the figures for the IC50 at SMYD2 [1] and on SMYD2 [2] were 38.4 nM and 268 nM, respectively.

As for `CCN(C(=O)[C@H]1CCN1)C1CN(/C(=N\C#N)Nc2cccc(OC(F)F)c2)N=C1c1ccc(Cl)c(C)c1` (mixture of isomers) [Example 36, (2R)-N-[3-(4-Chloro-3-methylphenyl)-1-{N′-cyano-N-[3-(difluoromethoxy)phenyl]-carbamimidoyl}-4,5-dihydro-1H-pyrazol-4-yl]-N-ethylazetidine-2-carboxamide], the IC50 amounted to 8.03 nM at SMYD2 [1] and 3.87 nM on SMYD2 [2].

Take `CCN(C(=O)[C@H]1C[C@@H](F)CN1)C1CN(/C(=N\C#N)Nc2cccc(OC(F)F)c2)N=C1c1ccc(Cl)c(C)c1` (mixture of isomers) [Example 38, (4R)-N-[3-(4-Chloro-3-methylphenyl)-1-{N′-cyano-N-[3-(difluoromethoxy)phenyl]carbamimidoyl}-4,5-dihydro-1H-pyrazol-4-yl]-N-ethyl-4-fluoro-D-prolinamide]: the IC50 at SMYD2 [1] is 387 nM; on SMYD2 [2], 18.8 nM.

Regarding `CCCN(C(=O)[C@H]1CCCN1)C1CN(/C(=N\C#N)Nc2cccc(OC(F)F)c2)N=C1c1ccc(Cl)c(C)c1` (mixture of isomers) [Example 40, N-[3-(4-Chloro-3-methylphenyl)-1-{N′-cyano-N-[3-(difluoromethoxy)phenyl]carbamimidoyl}-4,5-dihydro-1H-pyrazol-4-yl]-N-propyl-D-prolinamide], the IC50 at SMYD2 [1] worked out at 44.3 nM; at SMYD2 [2] it was 206 nM.

On to `CCN(C(=O)c1cccc(=O)[nH]1)C1CN(/C(=N\C#N)Nc2cccc(OC(F)F)c2)N=C1c1ccc(Cl)c(Cl)c1` (racemic) [Example 5, rac-N-[1-{N′-Cyano-N-[3-(difluoromethoxy)phenyl]carbamimidoyl}-3-(3,4-dichlorophenyl)-4,5-dihydro-1-pyrazol-4-yl]-N-ethyl-6-oxo-1,6-dihydropyridine-2-carboxamide], for which the IC50 at SMYD2 [1] is 793 nM; on SMYD2 [2] it was 720 nM.

For `CCN(C(=O)c1cccc(=O)[nH]1)C1CN(/C(=N\C#N)Nc2cccc(OC(F)(F)F)c2)N=C1c1ccc(Cl)c(Cl)c1` (racemic) [Example 18, rac-N-[1-{N′-Cyano-N-[3-(trifluoromethoxy)phenyl]carbamimidoyl}-3-(3,4-dichlorophenyl)-4,5-dihydro-1H-pyrazol-4-yl]-N-ethyl-6-oxo-1,6-dihydropyridine-2-carboxamide], the IC50 on SMYD2 [1] stood at 1520 nM; on SMYD2 [2], 764 nM.

With `N#C/N=C(/Nc1cccc(OC(F)F)c1)N1CC(NC(=O)[C@@H]2CCC[C@@H]2N)C(c2ccc(Cl)c(Cl)c2)=N1` (relative stereo) [Example 41, Rel-(1R,2S)-2-amino-N-[1-{N′-cyano-N-[3-(difluoromethoxy)phenyl]carbamimidoyl}-3-(3,4-dichlorophenyl)-4,5-dihydro-1H-pyrazol-4-yl]cyclopentanecarboxamide], the results for the IC50 on SMYD2 [1] and at SMYD2 [2] were 121 nM and 571 nM, respectively.

`CCN(C(=O)[C@H]1CCCN1)C1CN(/C(=N\C#N)Nc2cccc(OC(F)F)c2)N=C1c1ccc(Cl)c(Cl)c1` (single isomer, unassigned) [Example 1.1, N-[1-{N′-Cyano-N-[3-(difluoromethoxy)phenyl]carbamimidoyl}-3-(3,4-dichlorphenyl)-4,5-dihydro-1H-pyrazol-4-yl]-N-ethyl-D-prolinamide]: the values for the IC50 on SMYD2 [1] and on SMYD2 [2] were 4.45 nM and 2.6 nM, respectively.

For `CCN(C(=O)[C@H]1C[C@@H](O)CN1)C1CN(/C(=N\C#N)Nc2cccc(OC(F)F)c2)N=C1c1ccc(Cl)c(Cl)c1` (single isomer, unassigned) [Example 3.1], the IC50 on SMYD2 [1] stood at 19.8 nM; at SMYD2 [2], 63.4 nM.

For `CCN(C(=O)[C@H]1CCCN1)C1CN(/C(=N\C#N)Nc2cccc(OC(F)F)c2F)N=C1c1ccc(Cl)c(Cl)c1` (single isomer, unassigned) [Example 13.1, N-[1-{N′-Cyano-N-[3-(difluoromethoxy)-2-fluorophenyl]carbamimidoyl}-3-(3,4-dichlorophenyl)-4,5-dihydro-1H-pyrazol-4-yl]-N-ethyl-D-prolinamide], the IC50 at SMYD2 [1] worked out at 15.6 nM; on SMYD2 [2], 20.3 nM.

Turning to `CCN(C(=O)[C@H]1CCCN1)C1CN(/C(=N\C#N)Nc2cccc(OC(F)(F)F)c2F)N=C1c1ccc(Cl)c(Cl)c1` (single isomer, unassigned) [Example 21.1, N-[1-{N′-Cyano-N-[2-fluoro-3-(trifluoromethoxy)phenyl]carbamimidoyl}-3-(3,4-dichlorophenyl)-4,5-dihydro-1H-pyrazol-4-yl]-N-ethyl-D-prolinamide], the IC50 is 28 nM at SMYD2 [1] and 16.8 nM on SMYD2 [2].
